Species on record: Rattus norvegicus
Experiment: Open TG-GATES - Regimen: Single
Assay type: toxicity, organism-based, Sprague-Dawley
Design: regimen Single, gender Male, age 6 weeks
Conditions: in vivo, po, 2000 mg/kg, route gavage, dose level High; for APTT / Bas / Eos / Fbg / Hb / Ht / Lym / MCH / MCHC / MCV / Mono / Neu / PT / Plat / RBC / Ret / WBC: tissue Blood; for KIDNEY_L / KIDNEY_R / KIDNEY_TOTAL: tissue Kidney; for LIVER: tissue Liver; for A/G / ALP / ALT / AST / BUN / CRE / Ca / Cl / DBIL / GLC / IP / K / LDH / Na / PL / RALB / TBIL / TC / TG / TP / gamma-GTP: tissue Plasma

CCN1CCCC1CNC(=O)c1cc(S(N)(=O)=O)ccc1OC (configuration not stated) [SULPIRIDE]
TERMINAL_BW (3 h): 201.8 g | APTT (3 h): 18.6 s | Bas (3 h): 0% | Eos (3 h): 0.6% | Fbg (3 h): 244.2 mg/dL | Hb (3 h): 12.7 g/dL | Ht (3 h): 39.6% | Lym (3 h): 82% | MCH (3 h): 21 pg | MCHC (3 h): 32.2% | MCV (3 h): 65.4 fL | Mono (3 h): 3.2% | Neu (3 h): 13% | PT (3 h): 13.9 s | Plat (3 h): 117.9 x10_4/uL | RBC (3 h): 606.4 x10_4/ul | Ret (3 h): 7.7% | WBC (3 h): 82.3 x10_2/uL | KIDNEY_L (3 h): 0.9 g | KIDNEY_R (3 h): 0.9 g | KIDNEY_TOTAL (3 h): 1.8 g | LIVER (3 h): 9 g | A/G (3 h): 0.9 | ALP (3 h): 1446.6 IU/L | ALT (3 h): 42 IU/L | AST (3 h): 74.6 IU/L | BUN (3 h): 9.4 mg/dL | CRE (3 h): 0.2 mg/dL | Ca (3 h): 10.6 mg/dL | Cl (3 h): 105.4 meq/L | DBIL (3 h): 0.004 mg/dL | GLC (3 h): 174 mg/dL | IP (3 h): 8.8 mg/dL | K (3 h): 3.9 meq/L | LDH (3 h): 90.2 IU/L | Na (3 h): 143.4 meq/L | PL (3 h): 119.6 mg/dL | RALB (3 h): 2.3 g/dL | TBIL (3 h): 0.068 mg/dL | TC (3 h): 57.6 mg/dL | TG (3 h): 55 mg/dL | TP (3 h): 4.9 g/dL | gamma-GTP (3 h): 1.2 IU/L | TERMINAL_BW (6 h): 199.5 g | APTT (6 h): 17 s | Bas (6 h): 0% | Eos (6 h): 0.8% | Fbg (6 h): 273 mg/dL | Hb (6 h): 13 g/dL | Ht (6 h): 40.9% | Lym (6 h): 76.6% | MCH (6 h): 20.9 pg | MCHC (6 h): 31.9% | MCV (6 h): 65.6 fL | Mono (6 h): 2.6% | Neu (6 h): 19% | PT (6 h): 13.4 s | Plat (6 h): 121.6 x10_4/uL | RBC (6 h): 623.8 x10_4/ul | Ret (6 h): 7.6% | WBC (6 h): 63.1 x10_2/uL | KIDNEY_L (6 h): 0.9 g | KIDNEY_R (6 h): 0.9 g | KIDNEY_TOTAL (6 h): 1.7 g | LIVER (6 h): 8.1 g | A/G (6 h): 0.9 | ALP (6 h): 1306.2 IU/L | ALT (6 h): 39.6 IU/L | AST (6 h): 74.2 IU/L | BUN (6 h): 7.2 mg/dL | CRE (6 h): 0.1 mg/dL | Ca (6 h): 10.5 mg/dL | Cl (6 h): 106.4 meq/L | DBIL (6 h): 0 mg/dL | GLC (6 h): 163.6 mg/dL | IP (6 h): 9.1 mg/dL | K (6 h): 4 meq/L | LDH (6 h): 92 IU/L | Na (6 h): 142.4 meq/L | PL (6 h): 133.2 mg/dL | RALB (6 h): 2.4 g/dL | TBIL (6 h): 0.07 mg/dL | TC (6 h): 72.2 mg/dL | TG (6 h): 35.2 mg/dL | TP (6 h): 5.2 g/dL | gamma-GTP (6 h): 1 IU/L | TERMINAL_BW (9 h): 199.2 g | APTT (9 h): 19.7 s | Bas (9 h): 0% | Eos (9 h): 1% | Fbg (9 h): 296.6 mg/dL | Hb (9 h): 13.3 g/dL | Ht (9 h): 41.7% | Lym (9 h): 79.6% | MCH (9 h): 20.1 pg | MCHC (9 h): 32% | MCV (9 h): 62.9 fL | Mono (9 h): 2.2% | Neu (9 h): 16.6% | PT (9 h): 13.2 s | Plat (9 h): 117.3 x10_4/uL | RBC (9 h): 663.8 x10_4/ul | Ret (9 h): 7.5% | WBC (9 h): 63.8 x10_2/uL | KIDNEY_L (9 h): 0.9 g | KIDNEY_R (9 h): 0.9 g | KIDNEY_TOTAL (9 h): 1.8 g | LIVER (9 h): 7.5 g | A/G (9 h): 0.9 | ALP (9 h): 1349.6 IU/L | ALT (9 h): 30.8 IU/L | AST (9 h): 67.4 IU/L | BUN (9 h): 7.4 mg/dL | CRE (9 h): 0.1 mg/dL | Ca (9 h): 10.5 mg/dL | Cl (9 h): 108.4 meq/L | DBIL (9 h): 0.008 mg/dL | GLC (9 h): 165.6 mg/dL | IP (9 h): 10.1 mg/dL | K (9 h): 4.3 meq/L | LDH (9 h): 88.2 IU/L | Na (9 h): 142 meq/L | PL (9 h): 133.8 mg/dL | RALB (9 h): 2.5 g/dL | TBIL (9 h): 0.076 mg/dL | TC (9 h): 73 mg/dL | TG (9 h): 29 mg/dL | TP (9 h): 5.3 g/dL | gamma-GTP (9 h): 1.6 IU/L | TERMINAL_BW (24 h): 209.1 g | APTT (24 h): 16.6 s | Bas (24 h): 0.2% | Eos (24 h): 0.8% | Fbg (24 h): 301.4 mg/dL | Hb (24 h): 13.8 g/dL | Ht (24 h): 42.8% | Lym (24 h): 79.2% | MCH (24 h): 20.4 pg | MCHC (24 h): 32.3% | MCV (24 h): 63.2 fL | Mono (24 h): 3.6% | Neu (24 h): 15.4% | PT (24 h): 12.7 s | Plat (24 h): 120.6 x10_4/uL | RBC (24 h): 678.6 x10_4/ul | Ret (24 h): 7% | WBC (24 h): 97.3 x10_2/uL | KIDNEY_L (24 h): 0.9 g | KIDNEY_R (24 h): 0.9 g | KIDNEY_TOTAL (24 h): 1.9 g | LIVER (24 h): 9 g | A/G (24 h): 0.9 | ALP (24 h): 1595.2 IU/L | ALT (24 h): 40.6 IU/L | AST (24 h): 64.8 IU/L | BUN (24 h): 17.4 mg/dL | CRE (24 h): 0.2 mg/dL | Ca (24 h): 11.3 mg/dL | Cl (24 h): 103.8 meq/L | DBIL (24 h): 0.012 mg/dL | GLC (24 h): 179.8 mg/dL | IP (24 h): 9.3 mg/dL | K (24 h): 4.8 meq/L | LDH (24 h): 101 IU/L | Na (24 h): 141.4 meq/L | PL (24 h): 149.8 mg/dL | RALB (24 h): 2.7 g/dL | TBIL (24 h): 0.064 mg/dL | TC (24 h): 86.2 mg/dL | TG (24 h): 77 mg/dL | TP (24 h): 5.7 g/dL | gamma-GTP (24 h): 1 IU/L

— ChEMBL document CHEMBL3885861, “Open TG-GATES”
